Laboratory results published in patent US20210290648A1, “Potentiation of B-Lactam Antibiotics and B-Lactam/B-Lactamase Inhibitor Combinations Against Multidrug and Extensively Drug-Resistant Pseudomonas Aeruginosa Using Non-Ribosomal Tobramycin-Cyclam Conjugates” (University of Manitoba, priority 2018, published 2021).

How the values were obtained:
[1] = test system: MSSE CANWARD-2008 81388; assay: MIC, microbroth dilution; assay type: cell-based; details: standalone
Procedure: (§1) Antimicrobial Susceptibility Assay. The in vitro antimicrobial activity of all compounds/antibiotics against a panel of bacteria was evaluated by microbroth dilution method in accordance with the Clinical and Laboratory Standards Institute (CLSI) guidelines. Overnight grown bacterial cultures were diluted in saline to achieve a 0.5 McFarland turbidity, followed by 1:50 dilution in Mueller-Hinton broth (MHB) for inoculation to a final concentration of approximately 5×10^5CFU/mL. The antimicrobial agents were 2-fold serially diluted in MHB in a 96-well plate and incubated at 37° C. with equal volumes of inoculum for 18 h. The lowest concentration that prevented the visible growth of bacteria was defined as the MIC for each antimicrobial agent. The broth with or without bacterial cells was used as positive or negative control, respectively.

[2] = test system: MRSA ATCC 33592; assay: MIC, microbroth dilution; assay type: cell-based; details: standalone
Procedure: as §1

[3] = test system: β-lactamase-harboring MDR P. aeruginosa clinical isolates; assay: Triple combination susceptibility (β-lactam + avibactam + compound 2); assay type: cell-based, Pseudomonas aeruginosa
Description: The diazabicyclooctane β-lactamase inhibitor, avibactam, is able to inhibit a wide range of serine β-lactamases (class A, C, and D) but not metallo-β-lactamases (class B) (50, 51).^50,51 However, the high concentration of avibactam required to neutralize the effects of β-lactamase enzymes in these phenotypes is indicative of concomitant permeability barriers in the isolates, such as reduced porin uptake. […] The results of this study are shown in (FIG. 6). All isolates were resistant to all three β-lactam antibiotics used for the study. […] As expected, the study with meropenem was slightly different from others.
as §1
Checkerboard Assay. Combination studies with different antibiotics were performed in 96-well plates as previously described (22). Briefly, the antibiotic of interest was serially diluted in MHB along the abscissa while the adjuvant (newly synthesized conjugates) was serially diluted in MHB along the ordinate. This creates a 10×7 matrix wherein each well consists of a combination of different antibiotic and adjuvant concentrations. Overnight grown bacterial cultures were diluted in saline to achieve a 0.5 McFarland turbidity, followed by 1:50 dilution in Mueller-Hinton broth (MHB) for inoculation to a final concentration of approximately 5×10^5CFU/mL. Equal volume of this bacterial culture was then added to each well and incubated at 37° C. for 18 h. After incubation, the plates were read on EMax® Plus microplate reader (Molecular Devices, Sunnyvale, Calif., USA) at 590 nm. MIC was recorded as wells with the lowest concentration of drugs with no bacterial growth. The fractional inhibitory concentration (FIC) for each antibiotic was calculated by dividing the MIC of the antibiotic in the presence of adjuvant by the MIC of the antibiotic alone. Similarly, the FIC of adjuvant was calculated by dividing the MIC of the adjuvant in the presence of antibiotic by the MIC of the adjuvant alone. FIC index is the sum of both FICs. FIC indices of <0.5 were deemed synergistic; 0.5-4, no interaction; and >4, antagonistic.

[4] = humans; cited from earlier work

## 5-O-(Octylcyclam)-tobramycin.9TFA [Compound 2]
[1]
  MIC: 16 µg/mL
[2]
  MIC: 64 µg/mL
[3]; all β-lactamase-harboring isolates tested
  effect on activity of ceftolozane-tazobactam combinations: did not improve the activity
[3]; aztreonam + avibactam + compound 2, 8 μM each
  isolates below aztreonam susceptible breakpoint: all five isolates
[3]; aztreonam + single adjuvant 8 μM
  isolates reaching aztreonam susceptibility breakpoint (≤8 μg/ml): two out of five
[3]; ceftazidime + avibactam + compound 2, 8 μM each
  isolates below ceftazidime susceptible breakpoint: all isolates
[3]; ceftazidime + single adjuvant 8 μM
  isolates reaching ceftazidime susceptibility breakpoint (≤8 μg/ml): one of five
[3]; meropenem + avibactam + compound 2, 8 μM each
  isolates reaching meropenem susceptible levels: three out of five
[3]; meropenem + single adjuvant 8 μM
  isolates reaching meropenem susceptibility level: zero of five
[3]; single adjuvant at 8 μM, five isolates
  potentiation of ceftazidime: 4 fold

## C[C@@H](O)[C@H]1C(=O)N2C(C(=O)O)=C(S[C@@H]3CN[C@H](C(=O)N(C)C)C3)[C@H](C)[C@H]12 [Meropenem]
[4]
  achievable plasma concentration: > 8 µg/mL
